Values joined by “and” are separate entries in the source; they are usually repeats but may differ in a detail not shown here. Equal entries are not always repeated. Structures can show the parent of a compound that is named as a salt. Where only a bound is given, the exact number is not on record here.

Data set [1] in a line: Chemical stability in 0.3M acetate buffer pH 5.0 at 32° C. The format is physicochemical. An excerpt:
The chemical stability of the prodrugs to hydrolysis and solvolysis at the appropriate temperatures will be determined by measuring concentrations over time in the buffers and solvents used in the solubility and diffusion studies. Chemical degradation rate constants will be important in distinguishing enzymatic degradation from non-enzymatic degradation. Codrug enzymatic metabolism rate constants can also be determined in skin homogenates, to ascertain if the values are useful in the QSPR multiple regression analysis. The kinetics of codrug enzymatic degradation in skin homogenates will be done using abdominal plastic surgery samples. Enzymatic reaction rates will be determined at several different codrug concentrations. The skin is homogenized (Polytron tissue homogenizer and ground glass homogenizer fitted with a glass pestle) in HEPES-buffered Hanks' balanced salt solution and the supernatant is obtained. The enzymatic hydrolysis rates are determined in the homogenate at 37° C. The codrug and its metabolites will be obtained by solid-phase extraction, or another appropriate extraction method. Naltrexone and any other metabolite formed will be assayed by HPLC and expressed as moles of metabolite per minute per milligram of protein. Protein concentrations in the supernatant will be measured by the Bradford method. Controls containing only codrug and HEPES-buffered Hanks' balanced salt solution at 37° C. will also be monitored to determine non-enzymatic hydrolysis.
Chemical and enzymatic stability was determined for the codrugs. For chemical stability studies, the codrug was put in prewarmed 0.3M acetate buffer pH 5.0 after solubilization in <5% ACN, if required, at 32° C. in an incubator. Samples were withdrawn at regular intervals and injected into the HPLC after appropriate dilutions. Enzymatic stability studies are important for estimation of conversion of codrugs in the plasma. […] All stability data was analyzed using pseudo first order kinetics. […]

Data set [2] can be described thus: In vitro diffusion study across microneedle-treated full thickness Yucatan miniature pig skin. The format is in vitro ADME. The settings on record: for naltrexol flux: 10% PG containing saturated donor formulation; for flux enhancement of salt form over free base form: NTX flux, p<0.005; for flux of naltrexone from the hydrochloride salt form: donor in 0.3M acetate buffer pH 5.0, MN treated skin, n=4. The protocol:
For all in vitro experiments female Yucatan minipig skin (6 months old) were used. Skin sections were obtained by removing the subcutaneous fatty tissue by scalpel dissection, and were stored at −20° C. A PermeGear flow-through (In-Line, Riegelsville, Pa., USA) diffusion cell system was used for the skin permeation studies.
The skin was pierced 20 times with an array containing 5 MN (i.e., to make a total of 100 individual and non-over lapping piercings) before mounting the skin in the diffusion cell for the treatment group. The insertion of MN into skin was carried out manually by applying gentle finger pressure followed by instantaneous removal. MN's were distributed evenly within the 0.95 cm^2 area of skin and could easily be visualized after each 5 MN insertion, as to prevent reapplication in the same area. Single MN array of 5 were used simply out of ease for the experimental procedure. If any damage to an MN section was observed the section was replaced. […] Untreated skin samples were simply placed in the diffusion cells. Diffusion cells were kept at 32° C. using a circulating water bath. Data were collected using skin from a single pig 3-4 cells for the MN treated formulations.
The physiological receiver solution was water adjusted to pH 7.4 containing 20% ethanol, and the flow rate was adjusted to 1.5 ml/h. Each cell was charged with 0.25 ml of the donor in the donor compartment of the chamber. The diffusion cells were covered with a stopper to prevent evaporation. Samples were collected from the receiver compartment in six-hour increments over 48 h or for the length of the treatment. All samples were stored at 4° C. until analyzed by HPLC.
The in vitro permeation experiments were carried out to determine the transdermal flux of the parent drugs and the codrug, permeation coefficients as well as the concentration of the drug molecules in the skin at the end of the study. For all in vitro experiments Yucatan miniature pig (YP) skin was used. Full thickness skin was obtained by removing the subcutaneous fatty tissue by scalpel dissection, and stored at −20° C. A PermeGear flow-through (In-Line, Riegelsville, Pa., USA) diffusion cell system was used for the skin permeation studies. […] The skin was pierced 20 times with a 5 MN array (making 100 individual and non-over lapping piercings) before mounting the skin in the diffusion cell. MN pores were distributed evenly within the 0.95 cm^2 area of skin. Untreated skin samples were mounted directly onto the diffusion cells. The setup was maintained at 32° C. using a circulating water bath. Data collected using a minimum of 3-4 cells per treatment group. The receiver solution was water alkalified to pH 7.4 containing 20% ethanol at 37° C. Gentamycin sulfate (50 mg/L) was added to the receiver for 7 day studies as an antibacterial agent. The receiver flow rate was adjusted to 1.5 ml/h to maintain skin conditions. Each cell was charged with 0.25 ml of the donor and the diffusion cells were covered with a stopper to prevent evaporation of formulation. Samples were collected at regular increments over 48 hours or for the length of the treatment. Drug was concentrated 10 fold by evaporating 1 ml of the collected sample under nitrogen and reconstituting in 100 μl of ACN for quantification. All samples were stored at 4° C. until analyzed by HPLC. The skin was removed at the end of the study and the treatment area was diced into small pieces using a scalpel after removing all excess drugs from top of the skin. Drug was extracted out by immersing the skin pieces in ACN overnight in a shaker water bath at 32° C. Samples were injected into the HPLC after appropriate dilution for quantitative analysis. The donor was also removed and quantified at the end of the study by direct injection onto HPLC after suitable dilution using ACN. All data was analyzed using Fick's first law of diffusion. […]

Data set [3] has as its system hairless guinea pig micropores. Briefly: In vivo micropore visualization by gentian violet/India ink staining after MN treatment. To be noted: for time the pores stay open after MN treatment: codrug gel under occlusion, patch changed at 3.5 days. An excerpt:
The patches were removed at predetermined time points and the site was cleaned with sterile gauze. Gentian violet/India ink was applied as the dyeing agent at the MN treated sites and allowed to dry before excess dye was removed with ethanol and gauze. Both the dyes stain the viable epidermis but not the intact SC. […] The donor was removed from the top of the skin at the end of the study and analyzed by direct injection onto HPLC after suitable dilution using ACN.
All animal experiments were approved by the University of Kentucky IACUC. A proof of concept in vivo experiment was carried out. 4% w/w gels were prepared with the hydrochloride salt form of the codrug. Gels were formulated by dissolving 4% codrug salt in PG: buffer at pH 5.0=10:90 and 3.0% hydroxyethylcellulose (HEC) polymer (required to have a gel formulation). Polymer was dissolved over a 30 minute period to obtain a homogenous gel. The solution was stirred until a viscous gel resulted and then left at room temperature for 1½ to 2 hours to remove bubbles and ensure complete polymerization. The gel was saturated with excess solid and therefore was cloudy. MN treated animals were first cleaned topically with isopropyl alcohol, and 50 MN array was applied twice mutually perpendicular to each other to give a total of 100 pores at each site. 0.3 mL gel doses were applied to the dorsal region of the HGP. After application of the gel the skin was occluded with the occlusive patch and biocclusive tape was applied to prevent evaporation of the formulation. The patch was changed with new formulation at 3.5 days such that more than 50% intact codrug was always present in formulation. […] The patches were removed to obtain data at successive 24 h time intervals.
The patches were removed at predetermined time points and the site was cleaned with sterile gauze. Gentian violet/India ink was applied as the dyeing agent at the MN treated sites and allowed to dry before excess dye was removed with ethanol and gauze. Both the dyes stain the viable epidermis but not the intact SC.

Data set [4] in a line: Concentration of saturated donor solution. The settings on record: hydrochloride salt; 0.3M acetate buffer at pH 5.0. The format is physicochemical. On the procedure:
Solubility studies are carried out by equilibrating large excesses of each drug with the solvent studied. The experiments will be done at skin surface temperature (32° C.). To hasten the attainment of equilibrium, each slurry will be continuously shaken or stirred. Samples will be taken, filtered with an appropriate filter for the solvent, measured with respect to volume, and either assayed directly by HPLC or evaporated to dryness and reconstituted for assay. Binding of the compounds to the filter will be checked to eliminate the possibility of drug adsorption on the filter and/or filter casing. All toxic solvents and other chemicals will be handled with caution, and fume hoods will be used when appropriate.
In vitro experiments. The goal of the first set of in vitro experiments was to estimate flux and skin concentration of the base form of the codrug.

Data set [5] can be described thus: Pharmacokinetic study with codrug HCl salt gel patches after MN treatment. The format is in vivo, hairless guinea pig. The protocol: Microneedle treatment at each patch site contained 100 micropores created by a 1 cm^2 50 needle stainless steel array rotated 90° and inserted twice. […] Plasma samples were obtained from a jugular catheter over seven days and analyzed for drug concentration by LC/MS (Methods).
(§1) Hairless IAF guinea pigs (Charles River) weighing 350-650 g were used for these studies. All animal studies were in accordance with the institutional guidelines and approved by the University of Kentucky IACUC. Surgical procedure was performed to canulate the jugular vein. Blood samples (0.3 mL) were drawn from the jugular vein at regular time intervals for the time studied. MN treated animals were first cleaned topically with isopropyl alcohol, and two 50 MN arrays were then manually applied to each dose site. For MN treated GPs, four 0.3 mL gel doses were applied to the dorsal region of the hairless guinea pigs at 4 sites to obtain steady state plasma levels. […] The blood samples were immediately centrifuged at 10,000×g for 3 min; plasma was separated and stored at −70° C. until analysis.
as §1, with “70 g C” for “−70° C.”

The conditions of data set [6]: Micromedex 1.0, as fraction; cited from earlier work.
[7] abbreviates: listed as Compound 2U hydrochloride salt.

In the case of `O=C(Cc1ccccc1Nc1c(Cl)cccc1Cl)OC1CCC2(O)C3Cc4ccc(O)c5c4C2(CCN3CC2CC2)C1O5` (stereo not drawn) [Compound 2B], the “Chemical stability” value in data set [1] is 56.3 ± 9.5 days. In data set [2], the naltrexol flux entry is given as “approximately 0.29±0.09 nmol/cm^2/h”.

What is called half-life is how long it takes for the measured level to halve. A higher half-life goes with slow decline. As for `O=C(Cc1ccccc1Nc1c(Cl)cccc1Cl)O[C@@H]1CC[C@@]2(O)[C@H]3Cc4ccc(O)c5c4[C@@]2(CCN3CC2CC2)C1O5` (stereo partly drawn) [Compound 2B], the half-life in data set [1] (buffer pH 5.0, 32° C.) is approximately 56.3 days.

With `O=C1CC[C@@]2(O)[C@H]3Cc4ccc(O)c5c4[C@@]2(CCN3CC2CC2)[C@H]1O5` [NTX HCl, Naltrexone Hydrochloride, reference compound], in data set [3] (MN followed by NTX HCl gel under occlusion), the “pore visualization at day 4 (96 h)” value was “cannot be visualized”.

Take `Oc1ccc2c3c1O[C@H]1[C@H](O)CC[C@@]4(O)[C@@H](C2)N(CC2CC2)CC[C@]314` [NTXOL, 6-β-Naltrexol, reference compound]: in data set [2], the naltrexol flux was found to be 3.07±0.27 nmol/cm^2/h.

For the molecule `Cl.O=C(Cc1ccccc1Nc1c(Cl)cccc1Cl)Oc1ccc2c3c1O[C@H]1C(=O)CC[C@@]4(O)[C@@H](C2)N(CC2CC2)CC[C@]314` [codrug salt], the “flux enhancement of salt form over free base form” value in data set [2] is reported as 13 fold; in data set [2] (setting [7]), “about 13 fold”. Besides, the “flux of naltrexone from the hydrochloride salt form” value in data set [2] was 5.42±1.5 nmol/(cm^2/h) and 5.5 nmol/(cm^2/h); in data set [2] (setting [7]), 5.42±1.5 nmol/(cm^2/h). In addition, the “flux at higher concentrations of PG” value in data set [2] (salt form, 25% and 50% PG, saturated donor) is reported as “flux decreased significantly”. Moreover, the “flux of 10% PG containing formulation versus aqueous formulation” value in data set [2] (salt form, saturated donor, one way ANOVA) is “no significant difference in flux”. Besides, in data set [4], the “concentration of donor solution” value was determined as 39300 µg/mL. In addition, the “time the pores stay open after MN treatment” value in data set [3] (setting [7]) and in data set [3] (listed as HCl salt form of the compound) was not above 7 days each time. The “Css estimated from Jss*A=Css*Cl” value in data set [5] (4 patches, 400 MN treatments) is “around 1 ng/ml”. For the same molecule, the “intact codrug in plasma samples” value in data set [5] (LC/MS, over seven days) is “not detected”. Also, the “micropore staining with India ink” value in data set [5] (days 1, 4, 5, 6, and 7) was “Significant micropore staining”. For the same molecule, in data set [5] (one guinea pig of four), the “time at which pores closed” value is on record as 6 days. Moreover, the “flux of NTX from the codrug in hairless guinea pig model” value in data set [5] (salt form, 10% PG formulation) was “not high enough to quantify”. Moreover, the “duration of significant NTX plasma levels” value in data set [5] (three out of the four guinea pigs, four patches, single MN pretreatment) worked out at 7 days.

For the molecule `O=C(O)Cc1ccccc1Nc1c(Cl)cccc1Cl` [diclofenac, Diclofenac], in data set [6], the oral bioavailability was 0.55.

These data come from patent US9566341B1, “Compounds including Cox inhibitor moiety and enhanced delivery of active drugs using same” (University of Kentucky Research Foundation, priority 2011, dated 2017).
